One series relates to HIV-1 NL4.3. The series is described as follows: Anti-HIV-1 assay in MT-4 cells (tetrazolium-based colorimetric, cytopathic effect). Type of series: cell-based. The settings on record: Human immunodeficiency virus 1, MT4. The protocol: (§1) First, the ability of the compounds to compete with fluorescently labeled CXCL12 (CXCL12^AF647) for binding at CXCR4 was determined. Second, since binding of CXCL12 to CXCR4 results into a transient increase of cytosolic calcium levels, the inhibition of this CXCL12-induced calcium mobilization by the various compounds was also investigated. […] In parallel, the cytotoxicity of the compounds for uninfected MT-4 cells was assessed. […] The CD4 cell line MT-4 was obtained from the American Type Culture Collection (Rockville, MD, USA) and cultured in RPMI 1640 medium (Gibco BRL, Gaithersburg, MD, USA) with 10% heat-inactivated fetal calf serum (Biowhittaker Europe, Verviers, Belgium) and 2 mmol/L L-glutamine (Gibco BRL). […] The anti-HIV-1 and anti-HIV-2 activity in MT-4 cells was determined using a tetrazolium-based colorimetric assay. […] Threefold dilutions of the drugs in 100 μL medium were added to duplicate wells of 96-well flat bottom plates (Iwaki Glass). […] The cytopathic effect induced by the virus was checked regularly microscopically. […] Each assay was performed at least three times. […] Absorbance was recorded using the VersaMax ELISA™ microplate reader (Molecular Devices) and analyzed with the Softmax Pro® software (Molecular Devices, Version 4.0, www.moleculardevices.com, accessed on 10 January 2015). Using mock-infected cells, the cytotoxic concentration 50 (CC50) of each compound was investigated.
(Protection from cytopathic effect is a common read-out in antiviral testing.)

A further series deals with HIV-2 ROD. Description: Anti-HIV-2 assay in MT-4 cells (tetrazolium-based colorimetric, cytopathic effect). Type of series: cell-based. As to conditions: Human immunodeficiency virus 2, MT4. The protocol:
as §1

Series [1] has as its target T1, CXCR4 (Homo sapiens, UniProt P61073). Description: CXCL12AF647 competition binding assay with Jurkat cells (flow cytometry). Also on record: endogenous in cells; host or cells: Jurkat cells. The settings on record: concentration needed to inhibit CXCL12 receptor binding by 50%; Jurkat cells, 2.9 nM CXCL12AF647; mean ± SD. The protocol: (§2) First, the ability of the compounds to compete with fluorescently labeled CXCL12 (CXCL12^AF647) for binding at CXCR4 was determined. […] Finally, given the role of CXCR4 as a major coreceptor for HIV entry, the antiviral activity of the compounds against the X4-tropic wild type HIV-1 NL4–3 strain and the HIV-2 ROD strain was determined in MT-4 cells. In parallel, the cytotoxicity of the compounds for uninfected MT-4 cells was assessed.
The CXCL12^AF647 binding assay with Jurkat cells has been described previously. Briefly, Jurkat cells were resuspended in assay buffer [Hank’s Balanced Salt Solution (HBSS, Thermo Fisher Scientific), 20 mM HEPES buffer, 0.2% bovine serum albumin (Sigma-Aldrich), pH 7.4] at 3 × 10^5 cells per sample and then treated with various concentrations of the compound at room temperature for 15 min. Afterwards, the cells were incubated with 2.9 nM CXCL12^AF647 (in assay buffer) at room temperature for 30 min in the dark. Cells were fixed in 1% paraformaldehyde in DPBS and specific CXCL12^AF647 binding [i.e., mean fluorescence intensity (MFI)] was quantified by flow cytometry (FACSCanto^TM II; Becton Dickinson). Data were analyzed with FlowJo® Software. The 50% inhibitory concentration (IC50) was calculated for each compound relative to the negative (i.e., autofluorescence of untreated and unlabeled cells) and positive (i.e., untreated cells exposed to CXCL12^AF647 only) control.
In general terms: Flow cytometry measures light scatter and fluorescence of single cells or particles in a stream.

Another series has as its system MT-4 cells. Description: Cytotoxicity in mock-infected MT-4 cells. Type of series: cell-based. The protocol: (§3) First, the ability of the compounds to compete with fluorescently labeled CXCL12 (CXCL12^AF647) for binding at CXCR4 was determined. Second, since binding of CXCL12 to CXCR4 results into a transient increase of cytosolic calcium levels, the inhibition of this CXCL12-induced calcium mobilization by the various compounds was also investigated. […] In parallel, the cytotoxicity of the compounds for uninfected MT-4 cells was assessed. […] The CD4 cell line MT-4 was obtained from the American Type Culture Collection (Rockville, MD, USA) and cultured in RPMI 1640 medium (Gibco BRL, Gaithersburg, MD, USA) with 10% heat-inactivated fetal calf serum (Biowhittaker Europe, Verviers, Belgium) and 2 mmol/L L-glutamine (Gibco BRL). The anti-HIV-1 and anti-HIV-2 activity in MT-4 cells was determined using a tetrazolium-based colorimetric assay. This assay been described in detail before. Threefold dilutions of the drugs in 100 μL medium were added to duplicate wells of 96-well flat bottom plates (Iwaki Glass). […] The cytopathic effect induced by the virus was checked regularly microscopically. […] The absorbance was then recorded at 490 nm with a 96-well plate reader and compared with four cell control replicates (cells without virus and drugs) and four virus control wells (cells with virus but without drug). Each assay was performed at least three times. […] Absorbance was recorded using the VersaMax ELISA™ microplate reader (Molecular Devices) and analyzed with the Softmax Pro® software (Molecular Devices, Version 4.0, www.moleculardevices.com, accessed on 10 January 2015). Using mock-infected cells, the cytotoxic concentration 50 (CC50) of each compound was investigated.

The nature of series [2]: Cytotoxicity in mock-infected MT-4 cells. Type of series: cell-based. The settings on record: human, mock-infected (uninfected) MT-4 cells, concentration reducing viability of mock-infected MT4 cells by 50%; mean ± SD. The protocol:
as §3

Series [3] deals with T1, CXCR4. Description: CXCL12-induced calcium mobilization assay in U87.CD4.CXCR4 cells (FLIPR). Type of series: cell-based. As to conditions: concentration needed to inhibit CXCL12-induced calcium signaling by 50%, 6.25 nM CXCL12, mean ± SD. The protocol:
as §2
The calcium mobilization assay has been described in detail previously. U87.CD4.CXCR4 cells (2 × 10^4 cells per well in DMEM/10% FBS/0.01 M HEPES) were seeded in gelatin-coated (Sigma-Aldrich; 0.1% gelatin in DPBS) black-walled 96-well plates and incubated overnight at 37 °C and 5% CO2. The next day, cells were loaded with the fluorescent calcium indicator Fluo-2 acetoxymethyl (AM) ester (4 μM; Abcam) and incubated at room temperature in the dark for 45 min. Then, cells were incubated with various concentrations of the compounds for 10 min prior to the addition of 6.25 nM CXCL12 (in assay buffer). Fluctuations in intracellular calcium levels were measured in real time by the FLIPR Tetra® (Molecular Devices, Sunnyvale, CA, USA) in all 96 wells simultaneously. The response over baseline (after CXCL12 addition) was calculated with the ScreenWorks 4.0® software (Molecular Devices, Version 4.0, www.moleculardevices.com, accessed on 10 January 2015) by dividing the obtained relative light units (RLUs) through the base line measured just before CXCL12 addition. From this the IC50 value for each compound was determined taking into account the negative (i.e., untreated cells without CXCL12 stimulation) and positive (i.e., untreated cells with CXCL12 addition) control samples.
Background: Calcium flux is commonly read through the fluorescence of an indicator in the cells.

Read-outs that look alike come from different tables or passages of the source. A value given as a limit tells only on which side of the number the result lay.

T1 sequence (P61073 whole entry): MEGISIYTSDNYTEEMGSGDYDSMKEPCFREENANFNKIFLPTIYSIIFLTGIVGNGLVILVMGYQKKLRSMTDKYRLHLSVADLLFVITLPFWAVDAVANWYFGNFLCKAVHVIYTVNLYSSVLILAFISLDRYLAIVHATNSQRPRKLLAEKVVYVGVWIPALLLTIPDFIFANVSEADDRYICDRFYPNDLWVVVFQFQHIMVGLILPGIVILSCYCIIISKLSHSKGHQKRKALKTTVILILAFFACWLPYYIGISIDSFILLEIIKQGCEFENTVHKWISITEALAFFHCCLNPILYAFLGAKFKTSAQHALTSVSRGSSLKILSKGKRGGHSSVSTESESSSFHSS

Take `Cc1cccnc1CN(CCCCN)Cc1nccc2cc(F)ccc12` [Compound 24c, N1-((6-Fluoroisoquinolin-1-yl)methyl)-N1-((3-methylpyridin-2-yl)methyl)butane-1,4-diamine]: the EC50 (in general, the concentration needed to bring the measured effect to its halfway point) in the series with HIV-1 NL4.3 (50% protection of MT-4 cells against HIV-induced cytopathicity, mean ± SD, read-out: HIV-1 NL4.3 EC50) is 6.2 ± 5.9 nM; in the series with HIV-1 NL4.3 (MT-4 cells, read-out: EC50 against HIV-1), less than 100 nM; in the series on HIV-2 ROD (50% protection of MT-4 cells against HIV-induced cytopathicity, mean ± SD, read-out: HIV-2 ROD EC50), 3.8 ± 0.29 nM; in the series on HIV-2 ROD (MT-4 cells, read-out: EC50 against HIV-2), less than 100 nM. For the same molecule, the half-inhibitory concentration (IC50) – broadly, the concentration that gives 50% inhibition – on CXCR4 [1] is 0.64 ± 0.17 nM; at CXCR4 [3] it was 6.1 ± 1 nM. For the same molecule, the “cytotoxicity for the MT4 cell line (in words)” value in the series with MT-4 cells (MT4 cell line) is “lack cytotoxicity”. Further, the half-maximal cytotoxic concentration (CC50) – broadly, the concentration giving 50% cytotoxicity – in the series with MT-4 cells (concentration reducing viability of mock-infected MT4 cells by 50%, mean ± SD) came to 30.8 ± 0.88 µM. In series [2], this molecule came in with a 50% cytotoxic concentration (CC50) at 4 d of 31 µM.
